17 compounds from patent EP0888303B1, “SYNTHETIC DERIVATIVES OF RAPAMYCIN AS MULTIMERIZING AGENTS FOR CHIMERIC PROTEINS WITH IMMUNOPHILIN-DERIVED DOMAINS” (ARIAD Pharmaceuticals, Inc, priority 1996, dated 1997) can be followed below.

Data set [1] relates to FAS-FKBP fusion (wt FKBP) in HT1080 cells. Type of data set: cell-based, human. As to conditions: for Fas killing (wt, stable): % @ 1000: human, ht1080 cells, 1 µM.
Description: In this case, one uses cells which constituively express a detectable product. The cells also contain and are capable of expressing DNAs encoding chimeric proteins comprising one or more immunophilin-derived ligand binding domains and one or more effector domains, such as the intracellular domain of FAS, capable, upon multimerization, of triggering cell death. […] The cells are maintainined or cultured in a culture medium permitting cell growth or continued viability. The cells or medium are assayed for the presence of the constitutive cellular product, and a base-line level of reporter is thus established. One may use cells engineered for constituive production of hGH or any other conveniently detectable product to serve as the reporter. The compound to be tested is addded to the medium, the cells are incubated, and the cells or medium is tested for the presence of reporter at one or more time points. Decrease in reporter production indicates cell death, an indirect measure of multimerization of the fusion proteins.
The ability of a dimerizer to activate the Fas signal transduction pathway and trigger cell death in cells engineered to express a FAS-FKBP fusion can be tested in cells appropriately transduced by retroviral vectors to express the desired fusion protein. […] The retroviral supernatant is used to transduce target cells. To screen compounds and constructs, we used the human fibrosarcoma line HT1080. Two to three days after transfection, cells are plated into G418 and the resistant population or clones are isolated by standard means. To monitor dimerizer-induced apoptosis, cells are plated into a 96-well plate at either 5000 or 10,000 cells/well in MEM medium containing 10% fetal bovine serum. The next day, medium removed and replaced with freshmedium containing the test compound at various dilutions, in triplicate. In some cases, Actinomycin D is included at 50 ng/ml. Untreated wells are always included. The next day, medium is removed and replaced with medium containing 10% Alamar Blue viability indicator, which changes absorbance properties as a function of reducing agent released into the medium by cell metabolism. Alternatively, cells are counted. Optical density at the appropriate wavelength is measured using a platereader spectroscope.
The test system of data set [2] is cells expressing a construct containing p75 followed by 2 mutant FKBPs followed by a Fas effector domain. In words: Cell death monitored by Alamar Blue or hGH levels in hGH-expressing clones. Type of data set: cell-based. An excerpt:
As an alternative method for monitoring cell death, cells expressing a construct containing p75 followed by 2 mutant FKBPs followed by a Fas effector domain were transfected using an episomal vector, pCEP4 (Invitrogen Corp.) into which we had inserted DNA encoding hGH under control of a CMV promoter. The vector confers resistance to hygromycin. […] Monitoring Alamar Blue or hGH levels led to very similar EC50 curves for cell viability (measured as a % of control value) plotted against dimerizer concentration. In both cases the concentration of dimerizer corresponding to 50% of control was less than 1 nM.

The next data set addresses wild-type human FKBP12 (Homo sapiens, UniProt P62942). As to the kind of experiment: Competitive Binding FP Assay.
The target of another data set is mutant (F36V) FKBP. In words: Competitive Binding FP Assay. Details: species or system human.
The next data set addresses F36L mutant FKBP (Homo sapiens, UniProt P62942, F37L). In words: Competitive Binding FP Assay.
Data set [3] deals with FKBP-containing fusion proteins (wt FKBP). As to the kind of experiment: Transcription Assay, activation of reporter gene transcription (wt; stable). The following applies: at 1000 nM; each value an individual experiment. It is filed as cell-based, human. (In general: In a reporter assay the amount or activity of a reporter protein is the signal.)
Description: The ability of the multimerizing agents to multimerize chimeric proteins may be measured cell-based assays by measuring the occurrence of an event triggered by such multimerization. For instance, one may use cells containing and capable of expressing DNAs encoding chimeric proteins comprising one or more immunophilin-derived ligand binding domains and one or more effector domains capable, upon multimerization, of actuating a biological response. We prefer to use cells which further contain a reporter gene under the transcriptional control of a regulatory element (i.e., promoter) which is responsive to the multimerization of the chimeric proteins (at least one of which contains an FKBP domain). […] The cells are grown or maintained in culture. A multimerizing agent is added to the culture medium and after a suitable incubation period (to permit gene expression and secretion, e.g. several hours or overnight) the presence of the reporter gene product is measured. Positive results, i.e., multimerization, correlates with transcription of the reporter gene as observed by the appearance of the reporter gene product. The reporter gene product may be a conveniently detectable protein (e.g. by ELISA) or may catalyze the production of a conveniently detectable product (e.g. colored).
Dimerizers may also be assayed for their ability to activate transcription of a reporter gene linked to a regulatory sequence responsive to the dimerization of FKBP-containing fusion proteins containing one or more transcription regulatory domains (e.g. DNA binding domains and transcription activation domains). We have made use of such as system as follows. […] The reporter plasmid (G5IL2-SEAP) used in these assays contains a gene that encodes for secreted alkaline phosphatase (SEAP) under the control of the minimal IL2 promoter and 5XGAL4 binding sites placed upstream of the promoter. In all cases, a plasmid expressing growth hormone was used as an internal control to moniter transfection efficiency. Approximately, 16 hrs after transfection, the media was removed and the cells were washed twice with PBS. Cells were refed with 2.5 ml of DMEM containing 10% serum and two hours later, synthetic dimerizers were added directly to the medium at appropriate concentrations in 5ul of ethanol carrier solution. Approximetely, 24 hrs after the addition of the drugs, 100 ul of the media was removed and assayed for SEAP activity and another 100 ul of the media was used to assay for growth hormone activity (to normalize for transfection efficiency).
A further data set deals with F36M mutant FKBP. In words: Competitive Binding FP Assay. Further details: species or system human. The following applies: Synthetic Monomers table; normalized to value of FK506 run in the same experiment.
A further data set has as its target F36A mutant FKBP. In words: Competitive Binding FP Assay. Details: species or system human. As to conditions: Synthetic Monomers table; normalized to value of FK506 run in the same experiment.
In another data set the target is F36I mutant FKBP. As to the kind of experiment: Competitive Binding FP Assay. Details: species or system human. As to conditions: Synthetic Monomers table; normalized to value of FK506 run in the same experiment.
[4] abbreviates: read-out: FKBPwt binding affinity IC50.
Setting [5] is: Synthetic Multimerizers table, monomer value in brackets, mean of duplicates, normalized to FK506 = […] (substituted phenyl/lower aliphatic series: to AP1903 values), read-out: FKBPF36V binding affinity IC50.
[6] abbreviates: Synthetic Monomers table, normalized to value of FK506 run in the same experiment, read-out: wild-type IC50.
[7] abbreviates: Synthetic Monomers table, normalized to value of FK506 run in the same experiment, read-out: F36V IC50.
The mark [8] stands for this setting: Synthetic Monomers table, normalized to value of FK506 run in the same experiment, read-out: F36L IC50.

By IC50 is commonly meant the concentration at which inhibition is half-maximal.

“And” between values parts separate entries of the source, which are not always exact repeats. Identical values can stand only once. Like-named read-outs stand apart in the source and are kept apart here.

F36L mutant FKBP, sequence (P62942 2-108 F37L): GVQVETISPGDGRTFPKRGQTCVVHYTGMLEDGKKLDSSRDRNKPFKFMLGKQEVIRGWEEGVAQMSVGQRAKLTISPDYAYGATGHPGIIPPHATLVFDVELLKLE
wild-type human FKBP12, sequence (P62942 2-108): as the sequence (P62942 2-108 F37L) above, with L36F counted along it
Protocol for F36A mutant FKBP: (§1) Affinities of bumped synthetic ligands for FKBP were determined using a competitive assay based on fluorescence polarization (FP). […] The assay yields IC50 values that are related to the affinity of the competitive ligand for the protein.
(§2) All binding assay procedures were performed at room temperature. Serial dilutions of each protein were prepared in 50 mM potassium phosphate pH 7.8/150 mM NaCl/ 100µg/ml bovine gamma globulin ("FP buffer": prepared using only low-fluorescence reagents from Panvera), and 100 µl volumes transferred to wells of a Dynatech micro-fluor black 96-well fluorescence plate. 100 µl of 10 nM 4 in FP buffer plus 2% ethanol (prepared from an ethanol stock of the probe) was then added to each well with mixing. Duplicate control wells contained FP buffer instead of FKBP (for 0% probe binding) or 10 µM wild-type FKBP (for 100% binding).
(§3) The plates were stored covered in the dark for approximately 30 min to permit equilibration and then the fluorescence polarization of the sample in each well was read on a Jolley FPM-2 FP plate reader (Jolley Consulting and Research, Inc., Grayslake, IL) in accordance with the manufacturer's recommendations. Polarization (mP units) for each protein concentration was plotted (y axis) vs. final concentration of FKBP (x axis). Concentrations were determined by OD280 measurements. Arbitrary units were used for non-quantitated proteins.
(§4) Serial 10-fold dilutions of each synthetic ligand were prepared in 100% ethanol in glass vials and stored on ice. All other manipulations were performed at room temperature. […] 2.0 µl samples of the synthetic ligands were then transferred in duplicate to the wells with mixing. Finally, a probe solution was prepared containing 10 nM 4 in 0.1% ethanol/FP buffer, and 100 µl added to each well with mixing. Duplicate control wells contained ethanol instead of FKBP ligand (for 100% probe binding) or ethanol instead of FKBP ligand and FP buffer instead of FKBP (0% binding).
(§5) The plates were stored covered in the dark for approximately 30 min to permit equilibration and then the fluorescence polarization of the sample in each well read on a Jolley FPM-2 FP plate reader (Jolley Consulting and Research, Inc., Grayslake, IL) in accordance with the manufacturer's recommendations. The mean polarization (mP units) for each competitor concentration, in some cases converted to % total binding by reference to the control values, was plotted (y axis) vs. log molar final concentration of competitor (x axis). […] For incomplete curves the IC50 was determined by interpolation.
Protocol for F36I mutant FKBP: as §1, §2, §3, §4, §5
Protocol for F36L mutant FKBP: as §1, §2, §3, §4, §5
Protocol for F36M mutant FKBP: as §1, §2, §3, §4, §5
Protocol for mutant (F36V) FKBP: as §1, §2, §3, §4, §5
Protocol for wild-type human FKBP12: as §1, §2, §3
Serial 10-fold dilutions of each synthetic ligand were prepared in 100% ethanol in glass vials and stored on ice. All other manipulations were performed at room temperature. […] Finally, a probe solution was prepared containing 10 nM 4 in 0.1% ethanol/FP buffer, and 100 µl added to each well with mixing. Duplicate control wells contained ethanol instead of FKBP ligand (for 100% probe binding) or ethanol instead of FKBP ligand and FP buffer instead of FKBP (0% binding).
as §5

With AP1903, the EC50 in data set [1] (mean values, read-out: Fas killing (wt, stable) EC50) is 40 to 50 nM; in data set [2] (Alamar Blue readout, read-out: concentration of dimerizer corresponding to 50% of control (cell viability, Alamar Blue)) it was less than 1 nM; in data set [2] (hGH readout, read-out: concentration of dimerizer corresponding to 50% of control (hGH levels)), less than 1 nM.
`CC[C@H](C(=O)N1CCCC[C@H]1C(=O)O[C@H](CCc1ccc(OC)c(OC)c1)c1cccc(OCC(=O)O)c1)c1cc(OC)c(OC)c(OC)c1` [AP1867]: the IC50 on wild-type human FKBP12 (setting [4]) was 1960 nM; on mutant (F36V) FKBP (setting [5]), 1.8 nM; at F36L mutant FKBP (read-out: FKBPF36L binding affinity IC50), 6.2 nM.
In the case of `COc1ccc(CCC(OC(=O)C2CCCCN2C(=O)C(Cc2ccccc2)c2ccccc2)c2cccc(OCC(=O)O)c2)cc1OC` (mixture of isomers) [AP1831], the IC50 at wild-type human FKBP12 (setting [6]) is more than 10000 nM; at mutant (F36V) FKBP (setting [7]), 153 nM; at F36L mutant FKBP (setting [8]), 217 nM.
For `CCC(CC)NC(=O)N1CCCC[C@H]1C(=O)O[C@H](CCc1ccc(OC)c(OC)c1)c1cccc(OCC(=O)NCCNC(=O)COc2cccc([C@@H](CCc3ccc(OC)c(OC)c3)OC(=O)[C@@H]3CCCCN3C(=O)NC(CC)CC)c2)c1` [AP1966], the half-inhibitory concentration (IC50) on mutant (F36V) FKBP (setting [5]) is 58 nM.
Take `CC[C@H](C(=O)N1CCCC[C@H]1C(=O)O[C@H](CCc1ccc(OC)c(OC)c1)c1cccc(OCC(=O)NCCNC(=O)COc2cccc([C@@H](CCc3ccc(OC)c(OC)c3)OC(=O)[C@@H]3CCCCN3C(=O)[C@@H](CC)c3ccccc3)c2)c1)c1ccccc1` [AP1889]: in data set [1], the “Fas killing (wt, stable): % @ 1000” value is on record as 0% @ 1000. Further, in data set [3], the “activation of transcription (wt; stable): % @ 1000” value (shortened to “activation … % @ 1000”) was 0% (2×) and 1%. Moreover, the IC50 on mutant (F36V) FKBP (setting [5]) is 10000 nM.
With `CCC(CC)C(=O)N1CCCC[C@H]1C(=O)O[C@H](CCc1ccc(OC)c(OC)c1)c1cccc(OCC(=O)NCCNC(=O)COc2cccc([C@@H](CCc3ccc(OC)c(OC)c3)OC(=O)[C@@H]3CCCCN3C(=O)C(CC)CC)c2)c1` [AP1891], the “Fas killing (wt, stable): % @ 1000” value in [1] is reported as 0% @ 1000. The “activation … % @ 1000” value in [3] was 0% @ 1000.
For the compound `COc1ccc(CC[C@@H](OC(=O)[C@@H]2CCCCN2C(=O)C(c2ccccc2)c2ccccc2)c2cccc(OCC(=O)O)c2)cc1OC` [AP14245], the IC50 worked out at 173 nM at F36M mutant FKBP; 127 nM on F36A mutant FKBP; 562 nM at F36I mutant FKBP; 273 nM on mutant (F36V) FKBP (setting [7]); 684 nM at F36L mutant FKBP (setting [8]).
For the compound `CC[C@@H](C(=O)N1CCCC[C@H]1C(=O)O[C@H](CCc1ccc(OC)c(OC)c1)c1cccc(OCC(=O)O)c1)c1ccccc1` [AP1769], the concentration for half-maximal inhibition (IC50) on F36M mutant FKBP was found to be 193 nM; at F36A mutant FKBP, 460 nM; at wild-type human FKBP12 (setting [6]) it was 220000 nM; on F36I mutant FKBP, 346 nM; on mutant (F36V) FKBP (setting [7]) it was 133 nM; on F36L mutant FKBP (setting [8]), 238 nM.
Regarding `CCC(C(=O)N1CCCC[C@H]1C(=O)O[C@H](CCc1ccc(OC)c(OC)c1)c1cccc(OCC(=O)O)c1)c1ccc2c(c1)OCO2` (some centres unmarked) [AP1839], the half-inhibitory concentration (IC50) at F36M mutant FKBP turned out to be 19 nM; at F36A mutant FKBP it was 32 nM; at wild-type human FKBP12 (setting [6]), 13500 nM; on wild-type human FKBP12 (setting [4]), 16700 nM; at F36I mutant FKBP, 26 nM; at mutant (F36V) FKBP (setting [7]), 9 nM. The results for the IC50 on mutant (F36V) FKBP (setting [5]) and on F36L mutant FKBP (read-out: F36L IC50) were 5.4 nM and 57 nM, respectively.
Regarding `COc1ccc(CCC(OC(=O)C2CCCCN2C(=O)C(c2ccccc2)C(C)C)c2cccc(OCC(=O)O)c2)cc1OC` (mixture of isomers) [AP1781], the concentration for half-maximal inhibition (IC50) on wild-type human FKBP12 (setting [6]) stood at 38600 nM; at mutant (F36V) FKBP (setting [7]) it was 26 nM; at F36L mutant FKBP (setting [8]), 33 nM.
Regarding `COc1ccc(CC[C@@H](OC(=O)[C@@H]2CCCCN2C(=O)[C@@H](C)c2ccccc2)c2cccc(OCC(=O)O)c2)cc1OC` [AP1784], the IC50 was determined as 414 nM at F36M mutant FKBP; 171 nM on F36A mutant FKBP; 16000 nM at wild-type human FKBP12 (setting [6]); 117 nM at F36I mutant FKBP; 94 nM on mutant (F36V) FKBP (setting [7]); 92 nM at F36L mutant FKBP (setting [8]).
As for `CCC(C)(C)C(=O)C(=O)N1CCCC[C@H]1C(=O)O[C@H](CCc1ccc(OC)c(OC)c1)c1cccc(OCC(=O)O)c1` [AP1497], the half-inhibitory concentration (IC50) at wild-type human FKBP12 (setting [6]) worked out at 86 nM; on mutant (F36V) FKBP (setting [7]), 44 nM; at F36L mutant FKBP (setting [8]), 47 nM.
As to `COc1ccc(CCC(OC(=O)C2CCCCN2C(=O)C(c2ccccc2)C2CCCC2)c2cccc(OCC(=O)O)c2)cc1OC` (mixture of isomers) [AP1778], the half-inhibitory concentration (IC50) at wild-type human FKBP12 (setting [6]) amounted to 16000 nM; at mutant (F36V) FKBP (setting [7]), 22 nM; on F36L mutant FKBP (setting [8]) it was 32 nM.
For the compound `CC[C@H](C(=O)N1CCCC[C@H]1C(=O)O[C@H](CCN1CCOCC1)c1cccc(OCC(=O)O)c1)c1cc(OC)c(OC)c(OC)c1` [AP14246, (1R)-1-(3-(carboxymethoxy)phenyl)-3-(morpholino)-1-propyl (2S)-1-((2S)-(3,4,5-trimethoxyphenyl)butyryl)-2-piperdine carboxylate], on mutant (F36V) FKBP (setting [5]), the IC50 came to 16.5 nM.
Take `COc1ccc(CC[C@@H](OC(=O)[C@@H]2CCCCN2C(=O)Cc2ccccc2)c2cccc(OCC(=O)O)c2)cc1OC` [AP1780]: the 50% inhibitory concentration (IC50) was found to be 2600 nM at F36M mutant FKBP; 8330 nM on F36A mutant FKBP; 21600 nM at wild-type human FKBP12 (setting [6]); 2060 nM at F36I mutant FKBP; 1530 nM at mutant (F36V) FKBP (setting [7]); 3580 nM on F36L mutant FKBP (read-out: F36L IC50).
With `CCC(C(=O)N1CCCC[C@H]1C(=O)O[C@H](CCc1ccc(OC)c(OC)c1)c1cccc(OCC(=O)NCCNC(=O)COc2cccc([C@@H](CCc3ccc(OC)c(OC)c3)OC(=O)[C@@H]3CCCCN3C(=O)C(CC)c3ccc4c(c3)OCO4)c2)c1)c1ccc2c(c1)OCO2` (some centres unmarked) [AP1885], the “Fas killing (wt, stable): % @ 1000” value in [1] is 0% @ 1000. Also, in [3], the “activation … % @ 1000” value came to 0% @ 1000. In addition, the concentration for half-maximal inhibition (IC50) at mutant (F36V) FKBP (setting [5]) turned out to be 59.4 nM.
Consider `COc1ccc(CC[C@@H](OC(=O)[C@@H]2CCCCN2C(=O)[C@H](C)c2ccccc2)c2cccc(OCC(=O)O)c2)cc1OC` [AP1782], for which the IC50 on F36M mutant FKBP is 927 nM; at F36A mutant FKBP it was 1430 nM; at wild-type human FKBP12 (setting [6]), more than 100000 nM; at F36I mutant FKBP it was 1050 nM; at mutant (F36V) FKBP (setting [7]) it was 590 nM; on F36L mutant FKBP (setting [8]), 1400 nM.
